Among the data in patent US20250197406A1, “INDAZOLES AS HEMATOPOIETIC PROGENITOR KINASE 1 (HPK1) INHIBITORS AND METHODS FOR USING SAME” (1ST Biotherapeutics, Inc., priority 2022, published 2025) are IC50 values, retold here.

Where a name gives a salt, the structure may show the parent alone. Where only a bound is given, the exact number is not on record here.

For the experiment, the target named is recombinant human HPK1 (Homo sapiens (Human), UniProt Q92918). As to the kind of experiment: HPK1 kinase assay (Promega ADP-Glo kinase assay). The experiment is classed as biochemical. The following applies: In vitro activity against HPK1, 5 ng HPK1, MBP substrate, ATP 25 μM, 30° C. 40 minutes. The method, boiled down: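 IC50 was derived from percent inhibition across a range of compound concentrations. Recombinant human HPK1 (5 ng) phosphorylated MBP for 40 min at 30 °C in Tris buffer pH 7.5 with 20 mM MgCl2, with ATP added as a 25 µM solution and 0.5% DMSO. ADP formed was read by ADP-Glo luminescence.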
Sequence of recombinant human HPK1 (Q92918 whole entry): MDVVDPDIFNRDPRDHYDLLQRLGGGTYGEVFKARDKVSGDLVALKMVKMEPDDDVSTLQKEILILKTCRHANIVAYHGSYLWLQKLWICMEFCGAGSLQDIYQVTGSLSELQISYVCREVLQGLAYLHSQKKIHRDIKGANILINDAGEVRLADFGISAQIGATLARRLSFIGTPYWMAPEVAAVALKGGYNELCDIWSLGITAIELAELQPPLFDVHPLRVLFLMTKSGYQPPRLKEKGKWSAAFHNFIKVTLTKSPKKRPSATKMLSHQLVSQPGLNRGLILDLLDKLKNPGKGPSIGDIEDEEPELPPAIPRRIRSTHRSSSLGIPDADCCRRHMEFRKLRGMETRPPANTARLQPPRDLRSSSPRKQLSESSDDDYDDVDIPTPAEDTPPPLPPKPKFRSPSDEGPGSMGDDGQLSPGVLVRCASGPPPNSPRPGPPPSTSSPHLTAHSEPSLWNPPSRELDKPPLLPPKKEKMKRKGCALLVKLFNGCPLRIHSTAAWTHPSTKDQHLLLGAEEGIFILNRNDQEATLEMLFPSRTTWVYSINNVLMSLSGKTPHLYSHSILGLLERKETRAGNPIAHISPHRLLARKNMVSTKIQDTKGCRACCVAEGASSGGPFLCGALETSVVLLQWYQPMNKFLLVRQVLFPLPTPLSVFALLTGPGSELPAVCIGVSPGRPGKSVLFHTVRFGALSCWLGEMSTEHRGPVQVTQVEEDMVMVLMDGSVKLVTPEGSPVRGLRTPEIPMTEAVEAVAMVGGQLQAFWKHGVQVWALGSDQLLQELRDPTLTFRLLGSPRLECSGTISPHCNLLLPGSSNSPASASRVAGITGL
A general note: In ADP-Glo the light output rises with the ADP produced.
As to `Cc1c(F)c(C(C)N(C)C)c2[nH]ncc2c1-c1cn2cc(NC(=O)[C@@H]3C[C@@H]3F)nc2cn1` (stereo partly drawn) [Example 12, (1S,2S)-N-(6-(7-(1-(dimethylamino)ethyl)-6-fluoro-5-methyl-1H-indazol-4-yl)imidazo[1,2-a]pyrazin-2-yl)-2-fluorocyclopropane-1-carboxamide], the half-inhibitory concentration (IC50) – broadly, the point on the concentration scale where inhibition reaches its midpoint – was 501 to 1000 nM.
Then `O=C(Nc1cn2cc(-c3c(C(F)(F)F)c(F)c(C(O)C4CC4)c4[nH]ncc34)ncc2n1)[C@@H]1C[C@@H]1F` (stereo partly drawn) [Example 36, (1S,2S)-N-(6-(7-(cyclopropyl(hydroxy)methyl)-6-fluoro-5-(trifluoromethyl)-1H-indazol-4-yl)imidazo[1,2-a]pyrazin-2-yl)-2-fluorocyclopropane-1-carboxamide], with less than 100 nM; and `CC(=O)Nc1cn2cc(-c3c(Cl)c(F)c([C@@H](C)N[S@+]([O-])C(C)(C)C)c4[nH]ncc34)ncc2n1` [Example 135, N-(6-(7-((R)-1-(((R)-tert-butylsulfinyl)amino)ethyl)-5-chloro-6-fluoro-1H-indazol-4-yl)imidazo[1,2-a]pyrazin-2-yl)acetamide], with less than 100 nM; and `COC(=O)Nc1cn2cc(-c3c(Cl)c(F)c(NC(C)C)c4[nH]ncc34)ncc2n1` [Example 113, methyl (6-(5-chloro-6-fluoro-7-(isopropylamino)-1H-indazol-4-yl)imidazo[1,2-a]pyrazin-2-yl)carbamate], with less than 100 nM.
`CC(=O)Nc1cn2cc(-c3c(Cl)c(F)c(CN4CCC(C)(O)C4)c4[nH]ncc34)ncc2n1` (centres unmarked) [Example 159, N-(6-(5-chloro-6-fluoro-7-((3-hydroxy-3-methylpyrrolidin-1-yl)methyl)-1H-indazol-4-yl)imidazo[1,2-a]pyrazin-2-yl)acetamide]: the IC50 was in the range of 501 to 1000 nM.
With `CC(=O)NC(c1c(F)c(C(F)F)c(-c2cn3cc(NC(=O)[C@@H]4C[C@@H]4F)nc3cn2)c2cn[nH]c12)C1CC1` (stereo partly drawn) [Example 54, (1S,2S)-N-(6-(7-(acetamido(cyclopropyl)methyl)-5-(difluoromethyl)-6-fluoro-1H-indazol-4-yl)imidazo[1,2-a]pyrazin-2-yl)-2-fluorocyclopropane-1-carboxamide], the IC50 is less than 100 nM.
With `CC(C)Nc1c(F)c(Cl)c(-c2cn3cc(NC=O)nc3cn2)c2cn[nH]c12` [Example 112, N-(6-(5-chloro-6-fluoro-7-(isopropylamino)-1H-indazol-4-yl)imidazo[1,2-a]pyrazin-2-yl)formamide], the IC50 was less than 100 nM.
For the compound `CC(NC=O)c1c(F)c(C(F)(F)F)c(-c2cn3cc(NC(=O)[C@@H]4C[C@@H]4F)nc3cn2)c2cn[nH]c12` (stereo partly drawn) [Example 96, (1S,2S)-2-fluoro-N-(6-(6-fluoro-7-(1-formamidoethyl)-5-(trifluoromethyl)-1H-indazol-4-yl)imidazo[1,2-a]pyrazin-2-yl)cyclopropane-1-carboxamide], the IC50 is less than 100 nM.
`Cc1c(F)c(C(C)CN(C)C)c2[nH]ncc2c1-c1cn2cc(NC(=O)[C@@H]3C[C@@H]3F)nc2cn1` (stereo partly drawn) [Example 13, (1S,2S)-N-(6-(7-(1-(dimethylamino)propan-2-yl)-6-fluoro-5-methyl-1H-indazol-4-yl)imidazo[1,2-a]pyrazin-2-yl)-2-fluorocyclopropane-1-carboxamide]: the IC50 was 101 to 500 nM.
For `CC(C)Nc1c(F)c(Cl)c(-c2cn3cc(NC(=O)c4ccccc4)nc3cn2)c2cn[nH]c12` [Example 57, N-(6-(5-chloro-6-fluoro-7-(isopropylamino)-1H-indazol-4-yl)imidazo[1,2-a]pyrazin-2-yl)benzamide], the IC50 is less than 100 nM.
Regarding `N#Cc1c(F)cc2[nH]ncc2c1-c1cn2cc(NC(=O)[C@@H]3C[C@@H]3F)nc2cn1` [Example 72, (1S,2S)-N-(6-(5-cyano-6-fluoro-1H-indazol-4-yl)imidazo[1,2-a]pyrazin-2-yl)-2-fluorocyclopropane-1-carboxamide], the IC50 fell in the range of 501 to 1000 nM.
Under `CCCCC(=O)Nc1cn2cc(-c3c(Cl)c(F)c(NC(C)C)c4[nH]ncc34)ncc2n1` [Example 117, N-(6-(5-chloro-6-fluoro-7-(isopropylamino)-1H-indazol-4-yl)imidazo[1,2-a]pyrazin-2-yl)pentanamide] stands less than 100 nM; under `CC(CN)c1c(F)c(C(F)(F)F)c(-c2cn3cc(NC(=O)[C@@H]4C[C@@H]4F)nc3cn2)c2cn[nH]c12` (stereo partly drawn) [Example 98, (1S,2S)-N-(6-(7-(1-aminopropan-2-yl)-6-fluoro-5-(trifluoromethyl)-1H-indazol-4-yl)imidazo[1,2-a]pyrazin-2-yl)-2-fluorocyclopropane-1-carboxamide formate], less than 100 nM; under `CC(C)Nc1c(F)c(Cl)c(-c2cn3cc(NC(=O)CO)nc3cn2)c2cn[nH]c12` [Example 129, N-(6-(5-chloro-6-fluoro-7-(isopropylamino)-1H-indazol-4-yl)imidazo[1,2-a]pyrazin-2-yl)-2-hydroxyacetamide], less than 100 nM.
Take `CSC(C)C(=O)Nc1cn2cc(-c3c(Cl)c(F)c(NC(C)C)c4[nH]ncc34)ncc2n1` (centres unmarked) [Example 105, N-(6-(5-chloro-6-fluoro-7-(isopropylamino)-1H-indazol-4-yl)imidazo[1,2-a]pyrazin-2-yl)-2-(methylthio)propanamide]: the IC50 fell in the range of 101 to 500 nM.
`CC(C)Nc1c(F)c(Cl)c(-c2cn3cc(NC(=O)C(C)C)nc3cn2)c2cn[nH]c12` [Example 81, N-(6-(5-chloro-6-fluoro-7-(isopropylamino)-1H-indazol-4-yl)imidazo[1,2-a]pyrazin-2-yl)isobutyramide]: the IC50 was less than 100 nM.
As for `CC(=O)Nc1cn2cc(-c3c(Cl)c(F)c(OC4CN(C(C)=O)C4)c4[nH]ncc34)ncc2n1` [Example 145, N-(6-(7-((1-acetylazetidin-3-yl)oxy)-5-chloro-6-fluoro-1H-indazol-4-yl)imidazo[1,2-a]pyrazin-2-yl)acetamide], the IC50 fell in the range of 501 to 1000 nM.
Consider `CC(C)Nc1c(F)c(CO)c(-c2cn3cc(NC(=O)[C@@H]4C[C@@H]4F)nc3cn2)c2cn[nH]c12` [Example 40, (1S,2S)-2-fluoro-N-(6-(6-fluoro-5-(hydroxymethyl)-7-(isopropylamino)-1H-indazol-4-yl)imidazo[1,2-a]pyrazin-2-yl)cyclopropane-1-carboxamide], for which the IC50 is 101 to 500 nM.
As to `CC(C)Nc1c(F)c(Cl)c(-c2cn3cc(NC(=O)N4CCNCC4)nc3cn2)c2cn[nH]c12` [Example 120, N-(6-(5-chloro-6-fluoro-7-(isopropylamino)-1H-indazol-4-yl)imidazo[1,2-a]pyrazin-2-yl)piperazine-1-carboxamide], the IC50 was less than 100 nM.
`CC(C)Nc1c(F)c(Cl)c(-c2cn3cc(NC(=O)CN(C)C)nc3cn2)c2cn[nH]c12` [Example 103, N-(6-(5-chloro-6-fluoro-7-(isopropylamino)-1H-indazol-4-yl)imidazo[1,2-a]pyrazin-2-yl)-2-(dimethylamino)acetamide]: the IC50 was less than 100 nM.
With `CC(C)Nc1c(F)c(Cl)c(-c2cn3cc(NC(=O)C4(N)CC4)nc3cn2)c2cn[nH]c12` [Example 78, 1-amino-N-(6-(5-chloro-6-fluoro-7-(isopropylamino)-1H-indazol-4-yl)imidazo[1,2-a]pyrazin-2-yl)cyclopropane-1-carboxamide], the IC50 is less than 100 nM.
Turning to `NC(c1c(F)c(C(F)F)c(-c2cn3cc(NC(=O)[C@@H]4C[C@@H]4F)nc3cn2)c2cn[nH]c12)C1CC1` (stereo partly drawn) [Example 41, (1S,2S)-N-(6-(7-(amino(cyclopropyl)methyl)-5-(difluoromethyl)-6-fluoro-1H-indazol-4-yl)imidazo[1,2-a]pyrazin-2-yl)-2-fluorocyclopropane-1-carboxamide], the IC50 is less than 100 nM.
Under `CC(C)Nc1c(F)c(Cl)c(-c2cn3cc(NC(=O)[C@@H]4C[C@@H]4CF)nc3cn2)c2cn[nH]c12` [Example 94, (1R,2S)-N-(6-(5-chloro-6-fluoro-7-(isopropylamino)-1H-indazol-4-yl)imidazo[1,2-a]pyrazin-2-yl)-2-(fluoromethyl)cyclopropane-1-carboxamide] stands less than 100 nM; under `CN(C)c1c(F)c(C(F)(F)F)c(-c2cn3cc(NC(=O)[C@H]4C[C@H]4F)nc3cn2)c2cn[nH]c12` [Example 27, (1R,2R)-N-(6-(7-(dimethylamino)-6-fluoro-5-(trifluoromethyl)-1H-indazol-4-yl)imidazo[1,2-a]pyrazin-2-yl)-2-fluorocyclopropane-1-carboxamide], less than 100 nM; under `CC(C)Nc1c(F)c(C(F)F)c(-c2cn3cc(NC(=O)[C@@H]4C[C@@H]4C#N)nc3cn2)c2cn[nH]c12` [Example 154, (1R,2S)-2-cyano-N-(6-(5-(difluoromethyl)-6-fluoro-7-(isopropylamino)-1H-indazol-4-yl)imidazo[1,2-a]pyrazin-2-yl)cyclopropane-1-carboxamide], less than 100 nM.
In the case of `COc1c(F)c(N(C)C)c2[nH]ncc2c1-c1cn2cc(NC(=O)[C@@H]3C[C@@H]3F)nc2cn1` [Example 136, (1S,2S)-N-(6-(7-(dimethylamino)-6-fluoro-5-methoxy-1H-indazol-4-yl)imidazo[1,2-a]pyrazin-2-yl)-2-fluorocyclopropane-1-carboxamide], the IC50 was less than 100 nM.
For the compound `CN(C)c1c(F)c(C(F)(F)F)c(-c2cn3cc(NC(=O)[C@H]4C[C@@H]4F)nc3cn2)c2cn[nH]c12` [Example 31, (1R,2S)-N-(6-(7-(dimethylamino)-6-fluoro-5-(trifluoromethyl)-1H-indazol-4-yl)imidazo[1,2-a]pyrazin-2-yl)-2-fluorocyclopropane-1-carboxamide], the IC50 was less than 100 nM.
Regarding `CC(C)Nc1c(F)c(Cl)c(-c2cn3cc(NC(=O)OC(C)C)nc3cn2)c2cn[nH]c12` [Example 95, isopropyl (6-(5-chloro-6-fluoro-7-(isopropylamino)-1H-indazol-4-yl)imidazo[1,2-a]pyrazin-2-yl)carbamate], the IC50 is less than 100 nM.
For the compound `CC(C)Nc1c(F)c(Cl)c(-c2cn3cc(NC(=O)C4CC4)nc3cn2)c2cn[nH]c12` [Example 46, N-(6-(5-chloro-6-fluoro-7-(isopropylamino)-1H-indazol-4-yl)imidazo[1,2-a]pyrazin-2-yl)cyclopropanecarboxamide], the IC50 was less than 100 nM.
